{"source": "the OligoGym collection", "conditions": "siRNA", "note": "Values joined by “and” are separate entries in the source; they are usually repeats but may differ in a detail not shown here. Equal values may be shown once. HELM strings list units from the 5' end as sugar, base in round brackets, then linkage (d deoxyribose, r ribose, m 2'-O-methyl, p phosphodiester). Strings are as the collection lists them, not checked against the first reports. ss, as = sense and antisense strand; [lna] = locked nucleic acid (LNA); [una] = unlocked nucleic acid; [hna] = hexitol nucleic acid; [s4r] = 4'-thioribose; [fl2r] = 2'-fluoro; further: test system not given here"}
{"substance": "RNA1{r(A)p.r(U)p.m(C)p.r(A)p.m(C)p.r(A)p.r(A)p.r(A)p.r(C)p.r(C)p.r(C)p.r(C)p.m(U)p.r(A)p.r(G)p.r(A)p.r(G)p.r(G)p.r(G)p.r(T)p.r(T)}|RNA2{r(C)p.r(C)p.r(C)p.r(U)p.r(C)p.m(U)p.r(A)p.m(G)p.r(G)p.r(G)p.r(G)p.r(U)p.r(U)p.r(U)p.r(G)p.m(U)p.r(G)p.r(A)p.r(U)p.r(T)p.r(T)}$$$RNA1{StrandType:ss}|RNA2{StrandType:as}$", "values": [{"measurement": "target mRNA knockdown", "value": 27, "unit": "%"}]}
{"substance": "RNA1{[lna](A)p.r(A)p.r(A)p.r(C)p.r(A)p.r(U)p.r(G)p.r(C)p.r(A)p.r(G)p.r(A)p.r(A)p.r(A)p.r(A)p.r(U)p.r(G)p.r(C)p.r(U)p.r(G)p.[lna](T)p.[lna](T)}|RNA2{r(C)p.r(A)p.r(G)p.r(C)p.r(A)p.r(U)p.r(U)p.r(U)p.r(U)p.r(C)p.r(U)p.r(G)p.r(C)p.r(A)p.r(U)p.r(G)p.r(U)p.r(U)p.r(U)p.r(T)p.r(T)}$$$RNA1{StrandType:ss}|RNA2{StrandType:as}$", "values": [{"measurement": "target mRNA knockdown", "value": 82, "unit": "%"}]}
{"substance": "RNA1{r(G)p.r(G)p.r(U)p.r(C)p.r(A)p.r(U)p.r(C)p.r(C)p.r(A)p.r(U)p.r(G)p.r(A)p.r(C)p.r(A)p.r(A)p.r(C)p.r(U)p.r(U)p.r(U)p.d(T)p.d(T)}|RNA2{r(A)p.r(A)p.r(A)p.r(G)p.r(U)p.r(U)p.r(G)p.r(U)p.r(C)p.r(A)p.r(U)p.r(G)p.r(G)p.r(A)p.r(U)p.r(G)p.r(A)p.r(C)p.r(C)p.d(T)p.d(T)}$$$RNA1{StrandType:ss}|RNA2{StrandType:as}$", "values": [{"measurement": "target mRNA knockdown", "value": "80% and 94%"}]}
{"substance": "RNA1{r(C)p.r(U)p.r(U)p.r(A)p.r(C)p.r(G)p.r(C)p.r(U)p.r(G)p.r(A)p.r(G)p.r(U)p.r(A)p.r(C)p.r(U)p.r(U)p.r(C)p.r(G)p.r(A)p.r(T)p.r(T)}|RNA2{r(T)p.r(C)p.r(G)p.r(A)p.r(A)p.[lna](G)p.r(U)p.r(A)p.r(C)p.r(U)p.r(C)p.r(A)p.r(G)p.r(C)p.r(G)p.r(U)p.r(A)p.r(A)p.r(G)p.[lna](T)p.[lna](T)}$$$RNA1{StrandType:ss}|RNA2{StrandType:as}$", "values": [{"measurement": "target mRNA knockdown", "value": 85, "unit": "%"}]}
{"substance": "RNA1{r(A)p.r(A)p.r(C)p.r(C)p.r(C)p.r(A)p.r(C)p.r(C)p.r(A)p.r(C)p.r(A)p.r(G)p.r(C)p.m(U)p.r(A)p.r(G)p.r(A)p.r(A)p.r(C)p.m(U)p.m(U)}|RNA2{r(A)p.r(A)p.r(G)p.r(U)p.r(U)p.r(C)p.m(U)p.r(A)p.r(G)p.r(C)p.r(U)p.r(G)p.r(U)p.r(G)p.r(G)p.r(U)p.r(G)p.r(G)p.r(G)p.r(U)p.r(U)}$$$RNA1{StrandType:ss}|RNA2{StrandType:as}$", "values": [{"measurement": "target mRNA knockdown", "value": 81, "unit": "%"}]}
{"substance": "RNA1{r(A)p.r(A)p.r(G)p.r(G)p.r(A)p.r(G)p.r(A)p.r(U)p.r(C)p.r(A)p.r(A)p.r(C)p.r(A)p.r(U)p.r(U)p.r(U)p.m(U)p.m(C)p.m(A)p.r(T)p.r(T)}|RNA2{r(U)p.r(G)p.r(A)p.r(A)p.r(A)p.r(A)p.r(U)p.r(G)p.r(U)p.r(U)p.r(G)p.r(A)p.r(U)p.r(C)p.r(U)p.r(C)p.m(C)p.m(U)p.m(U)p.r(T)p.r(T)}$$$RNA1{StrandType:ss}|RNA2{StrandType:as}$", "values": [{"measurement": "target mRNA knockdown", "value": 73, "unit": "%"}]}
{"substance": "RNA1{r(A)p.r(A)p.m(C)p.r(A)p.r(G)p.r(C)p.r(C)p.r(U)p.m(U)p.r(A)p.r(C)p.r(C)p.r(C)p.r(C)p.r(G)p.r(A)p.r(U)p.r(U)p.r(C)p.r(T)p.r(T)}|RNA2{r(G)p.r(A)p.r(A)p.r(U)p.r(C)p.r(G)p.r(G)p.r(G)p.r(G)p.m(U)p.r(A)p.r(A)p.r(G)p.r(G)p.r(C)p.m(U)p.r(G)p.r(U)p.r(U)p.r(T)p.r(T)}$$$RNA1{StrandType:ss}|RNA2{StrandType:as}$", "values": [{"measurement": "target mRNA knockdown", "value": 68, "unit": "%"}]}
{"substance": "RNA1{r(U)p.r(U)p.r(U)p.m(G)p.r(A)p.r(U)p.m(C)p.r(A)p.r(G)p.r(C)p.r(G)p.r(G)p.r(A)p.r(G)p.r(A)p.r(C)p.r(U)p.r(C)p.r(G)p.r(T)p.r(T)}|RNA2{r(C)p.r(G)p.r(A)p.r(G)p.r(U)p.r(C)p.r(U)p.r(C)p.r(C)p.r(G)p.r(C)p.r(U)p.r(G)p.r(A)p.r(U)p.r(C)p.r(A)p.r(A)p.r(A)p.r(T)p.r(T)}$$$RNA1{StrandType:ss}|RNA2{StrandType:as}$", "values": [{"measurement": "target mRNA knockdown", "value": 82, "unit": "%"}]}
{"substance": "RNA1{r(G)p.r(U)p.r(A)p.r(U)p.r(G)p.r(A)p.r(C)p.r(C)p.r(G)p.r(A)p.r(C)p.r(U)p.r(A)p.r(C)p.r(G)p.r(C)p.r(G)p.r(U)p.r(A)p.r(T)p.r(T)}|RNA2{r(U)p.r(U)p.r(C)p.r(A)p.r(G)p.[una](U)p.r(G)p.r(U)p.r(G)p.r(A)p.r(U)p.r(G)p.r(A)p.r(C)p.r(A)p.r(C)p.r(U)p.r(U)p.r(G)p.r(T)p.r(T)}$$$RNA1{StrandType:ss}|RNA2{StrandType:as}$", "values": [{"measurement": "target mRNA knockdown", "value": 78, "unit": "%"}]}
{"substance": "RNA1{r(C)p.r(C)p.r(A)p.[fl2r](G)p.r(C)p.[fl2r](G)p.r(A)p.[fl2r](G)p.r(C)p.r(C)p.r(C)p.r(A)p.r(A)p.r(A)p.r(A)p.[fl2r](G)p.r(A)p.r(A)p.r(A)p.r(T)p.r(T)}|RNA2{[fl2r](U)p.r(U)p.[fl2r](U)p.r(C)p.[fl2r](U)p.r(U)p.[fl2r](U)p.r(U)p.[fl2r](G)p.r(G)p.[fl2r](G)p.r(C)p.[fl2r](U)p.r(C)p.[fl2r](G)p.r(C)p.[fl2r](U)p.r(G)p.[fl2r](G)p.r(T)p.r(T)}$$$RNA1{StrandType:ss}|RNA2{StrandType:as}$", "values": [{"measurement": "target mRNA knockdown", "value": 35, "unit": "%"}]}
{"substance": "RNA1{m(A)p.r(A)p.m(A)p.r(C)p.m(C)p.r(U)p.m(C)p.r(A)p.m(G)p.r(C)p.m(C)p.r(C)p.m(U)p.r(A)p.m(A)p.r(C)p.m(G)p.r(G)p.m(U)p.r(T)p.r(T)}|RNA2{r(A)p.r(C)p.r(C)p.r(G)p.r(U)p.r(U)p.r(A)p.r(G)p.r(G)p.r(G)p.r(C)p.r(U)p.r(G)p.r(A)p.r(G)p.r(G)p.r(U)p.r(U)p.r(U)p.r(T)p.r(T)}$$$RNA1{StrandType:ss}|RNA2{StrandType:as}$", "values": [{"measurement": "target mRNA knockdown", "value": 51, "unit": "%"}]}
{"substance": "RNA1{r(G)p.r(A)p.r(C)p.r(G)p.r(U)p.r(A)p.r(A)p.r(A)p.r(C)p.r(G)p.r(G)p.r(C)p.r(C)p.r(A)p.r(C)p.r(A)p.r(A)p.r(G)p.[hna](U)p.[hna](U)p.r(C)}|RNA2{r(A)p.r(C)p.[lna](T)p.r(U)p.r(G)p.[lna](T)p.r(G)p.r(G)p.r(C)p.r(C)p.r(G)p.r(U)p.r(U)p.[lna](T)p.r(A)p.r(C)p.r(G)p.[lna](T)p.r(C)p.[lna](G)p.[lna](C)}$$$RNA1{StrandType:ss}|RNA2{StrandType:as}$", "values": [{"measurement": "target mRNA knockdown", "value": 13.3, "unit": "%"}]}
{"substance": "RNA1{r(G)p.r(C)p.[fl2r](U)p.r(A)p.r(C)p.r(C)p.r(G)p.r(C)p.r(A)p.r(A)p.r(C)p.r(C)p.r(A)p.r(C)p.r(G)p.r(A)p.r(G)p.r(C)p.r(U)p.r(T)p.r(T)}|RNA2{r(A)p.r(G)p.r(C)p.r(U)p.r(C)p.r(G)p.r(U)p.r(G)p.r(G)p.r(U)p.r(U)p.r(G)p.r(C)p.r(G)p.r(G)p.[fl2r](U)p.r(A)p.r(G)p.r(C)p.r(T)p.r(T)}$$$RNA1{StrandType:ss}|RNA2{StrandType:as}$", "values": [{"measurement": "target mRNA knockdown", "value": 45, "unit": "%"}]}
{"substance": "RNA1{r(C)p.r(U)p.r(U)p.r(A)p.r(C)p.r(G)p.r(C)p.r(U)p.r(G)p.r(A)p.r(G)p.r(U)p.r(A)p.r(C)p.r(U)p.r(U)p.r(C)p.r(G)p.r(A)p.r(T)p.r(T)}|RNA2{r(T)p.r(C)p.r(G)p.r(A)p.[lna](A)p.r(G)p.r(U)p.r(A)p.r(C)p.r(U)p.r(C)p.r(A)p.r(G)p.r(C)p.r(G)p.r(U)p.r(A)p.r(A)p.r(G)p.[lna](T)p.[lna](T)}$$$RNA1{StrandType:ss}|RNA2{StrandType:as}$", "values": [{"measurement": "target mRNA knockdown", "value": 88, "unit": "%"}]}
{"substance": "RNA1{r(C)p.[fl2r](U)p.r(A)p.[fl2r](A)p.r(G)p.[fl2r](C)p.r(C)p.[fl2r](U)p.r(G)p.[fl2r](U)p.r(U)p.[fl2r](U)p.r(C)p.[fl2r](U)p.r(U)p.[fl2r](C)p.r(C)p.[fl2r](U)p.r(C)p.r(T)p.r(T)}|RNA2{r(G)p.[fl2r](A)p.r(G)p.r(G)p.[fl2r](A)p.[fl2r](A)p.r(G)p.[fl2r](A)p.[fl2r](A)p.[fl2r](A)p.r(C)p.[fl2r](A)p.r(G)p.r(G)p.r(C)p.r(U)p.r(U)p.[fl2r](A)p.r(G)p.r(T)p.r(T)}$$$RNA1{StrandType:ss}|RNA2{StrandType:as}$", "values": [{"measurement": "target mRNA knockdown", "value": 75, "unit": "%"}]}
{"substance": "RNA1{r(G)p.r(A)p.m(U)p.r(A)p.r(G)p.r(G)p.r(A)p.r(A)p.r(G)p.r(G)p.r(G)p.r(G)p.r(C)p.r(U)p.r(U)p.r(C)p.r(A)p.r(G)p.r(C)p.r(T)p.r(T)}|RNA2{r(G)p.r(C)p.r(U)p.r(G)p.r(A)p.r(A)p.r(G)p.r(C)p.r(C)p.r(C)p.r(C)p.r(U)p.r(U)p.r(C)p.r(C)p.m(U)p.m(A)p.r(U)p.r(C)p.r(T)p.r(T)}$$$RNA1{StrandType:ss}|RNA2{StrandType:as}$", "values": [{"measurement": "target mRNA knockdown", "value": 41, "unit": "%"}]}
{"substance": "RNA1{r(C)p.r(U)p.r(U)p.r(A)p.r(C)p.r(G)p.r(C)p.r(U)p.r(G)p.r(A)p.r(G)p.r(U)p.r(A)p.r(C)p.r(U)p.r(U)p.r(C)p.r(G)p.r(A)p.r(T)p.r(T)}|RNA2{r(U)p.r(C)p.r(G)p.r(A)p.r(A)p.r(G)p.r(U)p.r(A)p.r(C)p.r(U)p.r(C)p.[lna](A)p.r(G)p.r(C)p.r(G)p.r(U)p.r(A)p.r(A)p.r(G)p.r(T)p.r(T)}$$$RNA1{StrandType:ss}|RNA2{StrandType:as}$", "values": [{"measurement": "target mRNA knockdown", "value": 89, "unit": "%"}]}
{"substance": "RNA1{r(C)p.r(U)p.r(U)p.r(A)p.r(C)p.r(G)p.r(C)p.r(U)p.r(G)p.r(A)p.r(G)p.r(U)p.r(A)p.r(C)p.r(U)p.r(U)p.r(C)p.r(G)p.r(A)p.[lna](T)p.[lna](T)}|RNA2{r(U)p.r(C)p.r(G)p.r(A)p.r(A)p.r(G)p.r(U)p.r(A)p.r(C)p.r(U)p.r(C)p.r(A)p.r(G)p.r(C)p.r(G)p.r(U)p.r(A)p.r(A)p.r(G)p.d(T)p.d(T)}$$$RNA1{StrandType:ss}|RNA2{StrandType:as}$", "values": [{"measurement": "target mRNA knockdown", "value": 96, "unit": "%"}]}
{"substance": "RNA1{r(G)p.r(C)p.r(A)p.r(G)p.r(C)p.r(A)p.r(C)p.r(G)p.r(A)p.r(C)p.r(U)p.r(U)p.r(C)p.r(U)p.r(U)p.r(C)p.r(A)p.r(A)p.r(G)p.r(U)p.r(U)}|RNA2{r(C)p.[fl2r](U)p.r(U)p.r(G)p.r(A)p.r(A)p.r(G)p.r(A)p.r(A)p.r(G)p.r(U)p.r(C)p.r(G)p.r(U)p.r(G)p.r(C)p.r(U)p.r(G)p.r(C)p.r(U)p.r(U)}$$$RNA1{StrandType:ss}|RNA2{StrandType:as}$", "values": [{"measurement": "target mRNA knockdown", "value": 73.8, "unit": "%"}]}
{"substance": "RNA1{r(C)p.r(G)p.r(U)p.r(A)p.r(C)p.r(G)p.[s4r](C)p.[s4r](G)p.[s4r](G)p.[s4r](A)p.[s4r](A)p.[s4r](U)p.[s4r](A)p.r(C)p.r(U)p.r(U)p.r(C)p.r(G)p.r(A)p.r(T)p.r(T)}|RNA2{r(U)p.r(C)p.r(G)p.r(A)p.r(A)p.r(G)p.r(U)p.r(A)p.r(U)p.r(U)p.r(C)p.r(C)p.r(G)p.r(C)p.r(G)p.r(U)p.r(A)p.r(C)p.r(G)p.r(T)p.r(T)}$$$RNA1{StrandType:ss}|RNA2{StrandType:as}$", "values": [{"measurement": "target mRNA knockdown", "value": 87.4, "unit": "%"}]}
